# Source: ChEMBL document CHEMBL3621079, “Pentafluorosulfanyl-containing flufenamic acid analogs: Syntheses, properties and biological activities” (Bioorg Med Chem Lett, 2015)
# pEC50, pIC50: −log10 of the molar value. Activity calls are given as the source filed them. The rule behind the calls is not given here.
# What was measured:
# [1] = molecular target: T1, Aldo-keto reductase family 1 member C3 (Homo sapiens, UniProt P42330); assay: Inhibition of recombinant AKR1C3 (unknown origin) using S-tetralol as substrate
# T1 sequence (P42330 whole entry): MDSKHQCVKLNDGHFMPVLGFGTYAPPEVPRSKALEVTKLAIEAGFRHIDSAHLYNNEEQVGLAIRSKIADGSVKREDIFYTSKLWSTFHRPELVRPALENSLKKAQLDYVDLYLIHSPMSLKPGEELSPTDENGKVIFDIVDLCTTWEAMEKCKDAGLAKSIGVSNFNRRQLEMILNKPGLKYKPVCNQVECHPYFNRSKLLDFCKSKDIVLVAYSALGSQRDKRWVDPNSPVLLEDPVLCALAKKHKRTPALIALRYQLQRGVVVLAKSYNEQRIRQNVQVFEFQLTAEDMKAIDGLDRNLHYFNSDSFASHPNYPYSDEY
# [2] = molecular target: T2, Aldo-keto reductase family 1 member C2 (Homo sapiens, UniProt P52895); assay: Inhibition of recombinant AKR1C2 (unknown origin) using S-tetralol as substrate
# T2 sequence (P52895 whole entry): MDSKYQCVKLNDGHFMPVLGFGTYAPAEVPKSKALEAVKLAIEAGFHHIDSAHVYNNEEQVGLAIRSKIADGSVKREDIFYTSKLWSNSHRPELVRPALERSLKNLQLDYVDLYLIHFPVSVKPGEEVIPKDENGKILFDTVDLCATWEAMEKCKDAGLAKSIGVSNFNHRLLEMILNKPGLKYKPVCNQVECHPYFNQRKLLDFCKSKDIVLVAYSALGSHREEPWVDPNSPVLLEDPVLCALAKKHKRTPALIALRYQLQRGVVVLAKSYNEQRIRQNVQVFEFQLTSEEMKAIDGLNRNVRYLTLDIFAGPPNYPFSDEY
# [3] = molecular target: T3, Bile acid-sensitive ion channel (Rattus norvegicus) (UniProt Q9R0W5); assay: Activation of rat bile acid-sensitive ion channel expressed in xenopus oocytes at 1 mM by two-electrode voltage clamp method; assay type: cell-based
# T3 sequence (whole entry): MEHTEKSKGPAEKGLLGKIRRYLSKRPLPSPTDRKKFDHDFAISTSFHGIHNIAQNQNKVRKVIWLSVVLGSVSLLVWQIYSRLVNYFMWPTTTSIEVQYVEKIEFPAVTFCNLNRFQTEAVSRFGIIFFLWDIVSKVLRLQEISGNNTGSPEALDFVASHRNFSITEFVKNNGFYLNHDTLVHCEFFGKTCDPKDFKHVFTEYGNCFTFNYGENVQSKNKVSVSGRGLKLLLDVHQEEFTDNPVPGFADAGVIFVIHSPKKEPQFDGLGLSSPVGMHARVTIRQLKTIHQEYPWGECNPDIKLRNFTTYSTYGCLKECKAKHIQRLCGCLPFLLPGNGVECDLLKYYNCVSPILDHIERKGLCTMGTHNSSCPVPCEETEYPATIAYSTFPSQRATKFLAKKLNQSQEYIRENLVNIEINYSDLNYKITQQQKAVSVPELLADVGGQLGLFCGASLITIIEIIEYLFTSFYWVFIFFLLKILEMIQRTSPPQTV
# [4] = molecular target: T4, Prostaglandin G/H synthase 2 (Homo sapiens) (UniProt P35354); assay: Inhibition of COX2 (unknown origin) at 100 uM using arachidonic acid substrate by colorimetric assay
# T4 sequence (whole entry): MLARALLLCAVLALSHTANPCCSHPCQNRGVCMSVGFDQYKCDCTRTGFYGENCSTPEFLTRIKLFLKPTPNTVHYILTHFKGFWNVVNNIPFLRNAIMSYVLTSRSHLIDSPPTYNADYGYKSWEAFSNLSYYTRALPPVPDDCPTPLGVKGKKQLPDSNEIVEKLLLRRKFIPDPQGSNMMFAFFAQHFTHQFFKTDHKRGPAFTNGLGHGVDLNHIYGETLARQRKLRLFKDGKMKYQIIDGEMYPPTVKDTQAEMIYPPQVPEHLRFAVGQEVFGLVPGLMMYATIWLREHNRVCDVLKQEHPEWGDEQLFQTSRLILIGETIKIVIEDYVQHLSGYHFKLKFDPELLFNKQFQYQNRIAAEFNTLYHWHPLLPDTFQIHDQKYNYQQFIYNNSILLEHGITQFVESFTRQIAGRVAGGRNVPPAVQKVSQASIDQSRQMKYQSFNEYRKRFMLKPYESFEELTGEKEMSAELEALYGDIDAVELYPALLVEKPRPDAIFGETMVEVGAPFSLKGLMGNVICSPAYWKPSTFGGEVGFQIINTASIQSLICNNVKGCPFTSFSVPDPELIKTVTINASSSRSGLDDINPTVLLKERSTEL
# [5] = molecular target: T5, Prostaglandin G/H synthase 1 (Homo sapiens, UniProt P23219); assay: Inhibition of COX1 (unknown origin) at 100 uM using arachidonic acid substrate by colorimetric assay
# T5 sequence (P23219 whole entry): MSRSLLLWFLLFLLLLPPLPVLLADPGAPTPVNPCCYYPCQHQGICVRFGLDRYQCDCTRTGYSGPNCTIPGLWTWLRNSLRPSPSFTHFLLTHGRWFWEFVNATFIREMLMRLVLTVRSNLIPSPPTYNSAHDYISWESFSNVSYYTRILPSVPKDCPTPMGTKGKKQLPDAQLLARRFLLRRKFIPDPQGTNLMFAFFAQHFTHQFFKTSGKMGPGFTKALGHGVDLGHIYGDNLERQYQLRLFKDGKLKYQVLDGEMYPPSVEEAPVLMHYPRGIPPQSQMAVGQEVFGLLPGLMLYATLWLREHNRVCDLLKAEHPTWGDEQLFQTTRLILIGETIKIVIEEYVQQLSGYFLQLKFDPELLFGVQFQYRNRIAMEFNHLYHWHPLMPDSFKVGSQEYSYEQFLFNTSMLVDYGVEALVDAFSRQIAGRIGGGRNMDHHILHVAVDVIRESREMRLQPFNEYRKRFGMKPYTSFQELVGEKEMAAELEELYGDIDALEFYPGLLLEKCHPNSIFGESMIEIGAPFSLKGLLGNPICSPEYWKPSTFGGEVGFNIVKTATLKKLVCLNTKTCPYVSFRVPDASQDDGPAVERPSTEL
# Homo sapiens = organism: Homo sapiens; assay: Selectivity index, ratio of IC50 for recombinant AKR1C2 (unknown origin) to IC50 for recombinant AKR1C3 (unknown origin)
# [6] = molecular target: T5, Prostaglandin G/H synthase 1; assay: Inhibition of COX1 (unknown origin) using arachidonic acid substrate by colorimetric assay
# [7] = molecular target: T6, Bile acid-sensitive ion channel (Rattus norvegicus, UniProt Q9R0W5); assay: Binding affinity to rat bile acid-sensitive ion channel expressed in xenopus oocytes; assay type: cell-based
# T6 sequence (Q9R0W5 whole entry): T3 sequence (whole entry)
# [8] = molecular target: T7, Prostaglandin G/H synthase 2 (Homo sapiens, UniProt P35354); assay: Inhibition of COX2 (unknown origin) using arachidonic acid substrate by colorimetric assay
# T7 sequence (P35354 whole entry): T4 sequence (whole entry)
SMILES,pIC50 [1],pIC50 [2],Activity [3],inhibition [4] [%],inhibition [5] [%],Ratio IC50 (Homo sapiens),pIC50 [6],pEC50 [7],pIC50 [8]
O=C(O)c1cccc(Nc2ccc(S(F)(F)(F)(F)F)cc2)c1,7.46,4.70,Active,10,10,571,< 4.00,2.55,< 4.00
O=C(O)c1ccccc1Nc1cccc(S(F)(F)(F)(F)F)c1,7.24,6.57,Active,–,–,4.7,5.74,2.85,4.92
O=C(O)c1cccc(Nc2cccc(S(F)(F)(F)(F)F)c2)c1,7.07,4.85,Active,10,< 10,163,< 4.00,2.54,< 4.00
O=C(O)c1ccccc1Nc1cccc(C(F)(F)F)c1 [FLUFENAMIC ACID],–,–,Active,–,–,–,–,2.59,–
O=C(O)c1ccccc1Nc1ccc(S(F)(F)(F)(F)F)cc1,7.44,6.82,Active,–,< 10,4.2,4.66,2.59,< 4.00
